Consider 14 molecules from EP2934149B1, “C6-AZASPIRO IMINOTHIADIAZINE DIOXIDES AS BACE INHIBITORS” (Merck Sharp & Dohme Corp., priority 2012, dated 2014).

Assay [1] has as its target T1, purified human autoBACE-2 (Homo sapiens, UniProt Q9Y5Z0).
T1 sequence (Q9Y5Z0 63-473 limits assumed): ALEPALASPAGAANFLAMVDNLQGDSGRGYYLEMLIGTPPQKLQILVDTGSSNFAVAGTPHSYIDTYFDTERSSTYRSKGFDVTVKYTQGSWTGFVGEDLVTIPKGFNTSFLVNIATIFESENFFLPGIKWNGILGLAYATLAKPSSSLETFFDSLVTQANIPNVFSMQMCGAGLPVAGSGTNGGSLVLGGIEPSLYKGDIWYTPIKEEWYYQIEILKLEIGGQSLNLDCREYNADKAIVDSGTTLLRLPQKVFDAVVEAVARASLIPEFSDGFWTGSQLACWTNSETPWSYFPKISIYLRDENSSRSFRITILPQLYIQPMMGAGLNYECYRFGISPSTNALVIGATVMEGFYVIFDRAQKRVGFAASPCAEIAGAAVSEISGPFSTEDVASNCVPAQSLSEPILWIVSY
As to the kind of experiment: BACE-2 Assay (BACE-HTRF assay). The assay is classed as biochemical. The following applies: Ki calculated from IC50 using the Cheng-Prusoff equation; QSY7-EISEVNLDAEFC-Eu-amide substrate 200 nM final, pH 5.0, 30°C; read-out: BACE2 Ki. The procedure:
Inhibitor IC50's at purified human autoBACE-2 are determined in a time-resolved endpoint proteolysis assay that measures hydrolysis of the QSY7-[…]-Eu-amide FRET peptide substrate (BACE-HTRF assay). […] Inhibitor compounds, prepared at 3x the desired final concentration in 1x BACE assay buffer (20 mM sodium acetate pH 5.0,10% glycerol, 0.1% Brij-35) supplemented with 7.5% DMSO are pre-incubated with an equal volume of autoBACE-2 enzyme diluted in 1x BACE assay buffer (final enzyme concentration 1 nM) in black 384-well NUNC plates for 30 minutes at 30°C. […] DMSO is present at 5% final concentration in the assay. Following laser excitation of sample wells at 320 nm, the fluorescence signal at 620 nm is collected for 400 ms following a 50 µs delay on a RUBYstar HTRF plate reader (BMG Labtechnologies). Raw RFU data is normalized to maximum (1.0 nM BACE/DMSO) and minimum (no enzyme/DMSO) RFU values. […] The Ki values are calculated from the IC50 using the Cheng-Prusoff equation.

The target of assay [2] is soluble human BACE1 catalytic domain (Homo sapiens, UniProt P56817). Description: BACE1 HTRF FRET Assay. Format: biochemical. As to conditions: Ki calculated from IC50 using the Cheng-Prusoff equation; QSY7-APPswe-Eu substrate 200 nM final, pH 5.0, 30° C. The procedure: A homogeneous time-resolved FRET assay can be used to determine IC50 values for inhibitors of the soluble human BACE1 catalytic domain. […] This substrate contains an N-terminal QSY7 moiety that serves as a quencher of the C-terminal Europium fluorophore (620nm Em). […] Inhibition of BACE1 cleavage of the QSY7-APP^swe-Eu substrate by inhibitors is manifested as a suppression of 620 nm fluorescence. […] The reactions are incubated at 30° C for 1.5 hours. The 620nm fluorescence is then read on a Rubystar HTRF plate reader (BMG Labtechnologies) using a 50 millisecond delay followed by a 400 millisecond acquisition time window. Inhibitor IC50 values are derived from non-linear regression analysis of concentration response curves.
soluble human BACE1 catalytic domain, sequence (P56817 75-416 limits assumed): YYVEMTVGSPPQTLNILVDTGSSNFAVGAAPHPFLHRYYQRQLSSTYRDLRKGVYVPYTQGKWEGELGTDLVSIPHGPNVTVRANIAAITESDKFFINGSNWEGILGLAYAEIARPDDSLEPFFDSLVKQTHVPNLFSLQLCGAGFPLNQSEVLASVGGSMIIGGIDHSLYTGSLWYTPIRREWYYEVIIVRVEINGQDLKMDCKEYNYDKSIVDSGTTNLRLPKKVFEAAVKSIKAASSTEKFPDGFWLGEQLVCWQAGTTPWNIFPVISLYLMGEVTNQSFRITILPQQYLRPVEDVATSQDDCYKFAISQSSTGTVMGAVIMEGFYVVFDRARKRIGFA

For the molecule `CN1C(=N)N[C@](C)(c2cc(NC(=O)c3ccc(F)cn3)ccc2F)[C@]2(CCN(S(=O)(=O)c3ccccc3)C2)S1(=O)=O` [Example 78], the Ki in assay [1] is 0.007 µM; in assay [2], 0.002 µM.

As to `CN1C(=N)N[C@](C)(c2cc(NC(=O)c3ccc(F)cn3)ccc2F)[C@]2(CCN(S(=O)(=O)C3CC3)C2)S1(=O)=O` [Example 79], the inhibition constant (Ki) was 0.002 µM in assay [1] and 0.001 µM in assay [2].

Take `CN1C(=N)N[C@](C)(c2cc(NC(=O)c3ccc(F)cn3)ccc2F)[C@]2(CCN(S(=O)(=O)Cc3cccnc3)C2)S1(=O)=O` [Example 80]: the inhibition constant (Ki) in assay [1] was 0.005 µM; in assay [2], 0.002 µM.

Take `CN1C(=N)N[C@](C)(c2cc(NC(=O)c3ccc(F)cn3)ccc2F)[C@]2(CCN(S(=O)(=O)c3cn(C)cn3)C2)S1(=O)=O` [Example 81]: the results for the Ki in assay [1] and in assay [2] were 0.024 µM and 0.008 µM, respectively.

Turning to `CN1C(=N)N[C@](C)(c2cc(NC(=O)c3ccc(F)cn3)ccc2F)[C@]2(CCN(S(=O)(=O)c3cn[nH]c3)C2)S1(=O)=O` [Example 83], the Ki in assay [1] is 0.011 µM; in assay [2] it was 0.005 µM.

For `CN1C(=N)N[C@](C)(c2cc(NC(=O)c3ccc(F)cn3)ccc2F)[C@]2(CCN(S(=O)(=O)C3CCCC3)C2)S1(=O)=O` [Example 84], the Ki in assay [1] and in assay [2] was 0.002 µM in each case.

With `CN1C(=N)N[C@](C)(c2cc(NC(=O)c3ccc(F)cn3)ccc2F)[C@@]2(CCN(S(=O)(=O)C3CCCC3)C2)S1(=O)=O` [Example 85], the Ki is 0.037 µM in assay [1] and 0.041 µM in assay [2].

With `CN1C(=N)N[C@](C)(c2cc(NC(=O)c3ccc(F)cn3)ccc2F)[C@@]2(CCN(S(C)(=O)=O)C2)S1(=O)=O` [Example 88], the Ki was 0.054 µM in assay [1] and 0.034 µM in assay [2].

As for `CCS(=O)(=O)N1CC[C@]2(C1)[C@@](C)(c1cc(NC(=O)c3ccc(F)cn3)ccc1F)NC(=N)N(C)S2(=O)=O` [Example 89], the values for the Ki in assay [1] and in assay [2] were 0.041 µM and 0.045 µM, respectively.

For `CC(C)CS(=O)(=O)N1CC[C@]2(C1)[C@@](C)(c1cc(NC(=O)c3ccc(F)cn3)ccc1F)NC(=N)N(C)S2(=O)=O` [Example 90], the Ki was 0.029 µM in assay [1] and 0.048 µM in assay [2].

Regarding `CN1C(=N)N[C@](C)(c2cc(NC(=O)c3ccc(F)cn3)ccc2F)[C@@]2(CCN(S(=O)(=O)C3CC3)C2)S1(=O)=O` [Example 92], the inhibition constant Ki in assay [1] is 0.029 µM; in assay [2], 0.041 µM.

For the molecule `CN1C(=N)N[C@](C)(c2cc(NC(=O)c3ccc(F)cn3)ccc2F)[C@@]2(CCN(S(=O)(=O)Cc3cccnc3)C2)S1(=O)=O` [Example 93], the Ki is 0.02 µM in assay [1] and 0.028 µM in assay [2].

On to `CN1C(=N)N[C@](C)(c2cc(NC(=O)c3ccc(F)cn3)ccc2F)[C@@]2(CCN(S(=O)(=O)c3cn(C)cn3)C2)S1(=O)=O` [Example 94], for which the figures for the inhibition constant (Ki) in assay [1] and in assay [2] were 0.019 µM and 0.037 µM, respectively.

Take `COCC(=O)Nc1ccc(F)c([C@@]2(C)NC(=N)N(C)S(=O)(=O)[C@@]23CCNC3)c1` [Example 97]: the Ki was 0.782 µM in assay [1] and 1.04 µM in assay [2].

A word on the Ki: it is a dissociation constant, usually derived from enzyme kinetics or from competition with a known ligand.
